Values quoted from earlier work as cited in US5700484A, “Sustained release microparticulate caffeine formulation” (Nestec S.A., priority 1996, dated 1997).

Settings: 350 mg caffeine oral, aqueous solution

SMILES: Cn1c(=O)c2c(ncn2C)n(C)c1=O [caffeine, 1,3,7-trimethyl xanthine]
- maximum plasma level: approximately 8.3 μg/ml
